Data from patent publication US20240174727A1, “LONG-ACTING NATRIURETIC PEPTIDES AND USES THEREOF” (Eli Lilly and Company, priority 2022, published 2024).
Numbered stars: 1 amine (or outer) side, 2 acyl side, 3 side chain; on linkers, the order of the positions; unused ones are H or OH. Bridge positions count the residues as written; N and C are the ends. * marks the point of attachment. C20 diacid = O=C(O)CCCCCCCCCCCCCCCCCCC(=O)*; γGlu = O=C(O)[C@H](CCC(=O)[*:2])N[*:1]

Target: T1, human NPRA (Homo sapiens, UniProt P16066)
T1 construct: Full-Length cDNA Cloning and Generation of Cell Lines Overexpressing Natriuretic Peptide Receptors (NPRs); expressed in transfected cells; host or cells: Jump-in T-Rex HEK293 cells, pJTI R4 CMV-TO MCS pA vector, tetracycline induction
T1 sequence (P16066 33-1061): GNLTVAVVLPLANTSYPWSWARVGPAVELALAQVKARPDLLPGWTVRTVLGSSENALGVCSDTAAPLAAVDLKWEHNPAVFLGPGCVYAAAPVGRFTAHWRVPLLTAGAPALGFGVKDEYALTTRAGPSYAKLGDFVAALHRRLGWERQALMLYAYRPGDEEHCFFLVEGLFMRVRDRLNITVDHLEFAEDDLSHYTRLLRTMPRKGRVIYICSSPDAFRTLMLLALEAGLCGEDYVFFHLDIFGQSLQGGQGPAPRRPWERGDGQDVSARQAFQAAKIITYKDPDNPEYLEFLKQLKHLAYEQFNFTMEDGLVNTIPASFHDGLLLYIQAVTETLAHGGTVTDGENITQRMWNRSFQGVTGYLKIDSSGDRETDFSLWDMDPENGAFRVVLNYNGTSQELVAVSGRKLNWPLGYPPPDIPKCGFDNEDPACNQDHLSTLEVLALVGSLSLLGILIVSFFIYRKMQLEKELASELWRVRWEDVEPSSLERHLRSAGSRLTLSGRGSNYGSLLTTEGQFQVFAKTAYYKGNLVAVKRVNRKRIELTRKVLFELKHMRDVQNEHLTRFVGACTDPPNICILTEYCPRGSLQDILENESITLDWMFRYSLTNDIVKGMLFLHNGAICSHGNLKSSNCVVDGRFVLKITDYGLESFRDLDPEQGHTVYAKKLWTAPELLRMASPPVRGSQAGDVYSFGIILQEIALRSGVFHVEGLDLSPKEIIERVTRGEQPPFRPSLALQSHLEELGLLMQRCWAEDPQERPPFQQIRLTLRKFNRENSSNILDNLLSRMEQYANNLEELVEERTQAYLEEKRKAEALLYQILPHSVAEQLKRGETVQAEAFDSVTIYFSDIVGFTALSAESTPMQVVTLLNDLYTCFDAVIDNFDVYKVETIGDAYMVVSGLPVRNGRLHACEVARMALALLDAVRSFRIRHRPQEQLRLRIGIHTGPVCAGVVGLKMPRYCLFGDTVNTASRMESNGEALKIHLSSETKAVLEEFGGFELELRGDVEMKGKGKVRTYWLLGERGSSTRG
Test: Human NPRA cGMP activity assay (HTRF) in HEK293 cells overexpressing NPRA
Assay type: cell-based
Method: All sequences were verified by full-length sequencing performed by ACGT DNA Sequencing Services (Wheeling, IL). The target cDNA was cloned into pJTI R4 CMV-TO MCS pA vector and then co-transfected with pJT1R4 Int vector into Jump-in™ T-Rex™ HEK293 cells for mammalian inducible expression using Jump-in™ T-Rex™ HEK293 kit and Lipofectamine LTX and Plus Reagent following manufacturer's protocols, as briefly described below.
Jump-in™ T-Rex™ HEK293 cells were plated in a BioCOAT® poly-D-lysine coated 6-well plate (Becton Dickinson, cat no. 354413) at 1 million cells/well in 2 mL culture medium and incubated for 18 h at 37° C. and 5% CO2 to 50-70% confluence. A cDNA mix was made in a 50 mL tube by adding 1.5 μg target cDNA, 1.5 μg pJT1R4 Int vector, 3 μL Plus Reagent, and 300 μL Opti-MEM I sequentially into the tube. A reagent mix was made in a separate 50 mL tube by adding 7.5 μL Lipofectamine LTX into 300 μL Opti-MEM I. The mixtures were incubated for 5 min at room temperature. The cDNA mix was then transferred into the reagent mix, mixed well, and incubated for additional 30 min at room temperature. A 500 μL of cDNA/Lipofectamine complex was then transferred to the wells of the cell plate in which the culture medium was changed to 2 mL of transfection medium containing DMEM with 4.5 g/L D-glucose supplemented with 10% FBS-HI and 20 mM HEPES. Transfected cells were cultured for 48 h in an incubator at 37° C. and 5% CO2. A subclone or pool from each overexpressing cell line was maintained in culture medium with the addition of 2 mg/mL G418 sulfate for the clone selection based on its built-in resistance to G418 sulfate for at least 3 weeks with medium changed every 2-3 days.
NPRs were overexpressed in T-Rex™ HEK293 cells following the induction with 300 ng/mL tetracycline in culture medium for 48 h. Induced cell lines in an exponential growth phase were treated with 0.05% trypsin-EDTA for a few seconds at room temperature, harvested in cell medium containing FBS to neutralize the trypsin, counted, and cryopreserved at the density of 2 million cells/mL in cell preservation solution containing FBS-HI with 5% DMSO. Cryopreserved cells were stored at −80° C. for a few days prior to transferring to a liquid nitrogen tank. Induced cell lines were then used for suspension assays to measure the activity of polypeptides to stimulate cGMP production in cGMP assays or for the preparation of cell membranes to measure the binding activity of polypeptides in competitive radioligand binding assays, as described below.
Test polypeptides were added starting at 10 μM concentration and at 10-fold decreasing concentrations to obtain 8-point concentration-response curves (i.e., 10 μM to 1 pM). The quantity of cGMP generated was detected using HTRF® technology and normalized to maximum amount produced by 100 nM amidated rat ANP and the minimum amount produced by assay buffer. Detailed steps are outlined below.
Stock solutions of test polypeptides (2 mM) dissolved in DMSO were first diluted 100-fold in assay buffer containing HBSS with Ca^2+ and Mg^2+, 5 mM HEPES, 0.5 mM IBMX, and 0.1% BSA or 0.1% casein (pH 7.4). The polypeptides were further serially diluted in 1:10 dilution steps in assay buffer containing 0.1% BSA or 0.1% casein to generate 8-point 2× working stock solutions ranging from 20 μM to […].
A 10 μL cell suspension containing 4000 cells was plated in Costar® half-area white opaque 96-well plates (Corning, cat no. 3693). Then 10 μL of assay buffer (basal activity), 200 nM of amidated rat ANP (maximum activity) or 2× working stock solutions of test polypeptides were transferred into the plate. Final concentration of DMSO in each well was 0.5%. The plate was shaken for 15 sec and then incubated for 40 min at room temperature.
The cGMP generated was measured using cGMP kit following the manufacturer's directions, as described below.

[1] = cGMP Assay (EC50, pM) w/Casein hNPRA, assay buffer with 0.1% casein

| Compound | EC50 (cGMP Assay (EC50, pM) w/BSA hNPRA, assay buffer with 0.1% BSA) [pM] | EC50 [1] [pM] |
| --- | --- | --- |
| CC[C@H](C)[C@@H]1NC(=O)[C@H](CCCNC(=N)N)NC(=O)[C@H](CC(=O)O)NC(=O)[C@H]([C@@H](C)CC)NC(=O)[C@H](CCCNC(=N)N)NC(=O)[C@H](CCCCN)NC(=O)CNC(=O)[C@H](Cc2ccccc2)NC(=O)[C@@H](NC(=O)[C@H](CO)NC(=O)[C@H](CO)NC(=O)[C@H](CCCNC(=N)N)NC(=O)[C@@H]2CCCN2C(=O)[C@H](CCCCN)NC(=O)[C@H](CCC(=O)O)NC(=O)CNC(=O)[C@H](CCCCN)NC(=O)[C@H](CCC(=O)O)NC(=O)[C@H](CCCCN)NC(=O)[C@H](CCC(=O)O)NC(=O)[C@H](CCCCN)NC(=O)[C@H](CCC(=O)O)NC(=O)CC[C@H](NC(=O)CCCCCCCCCCCCCCCCCCC(=O)O)C(=O)O)CSCSC[C@@H](C(=O)N2CCC[C@H]2C(=O)N[C@@H](CO)C(=O)N[C@@H](Cc2ccccc2)C(=O)N[C@@H](CCCNC(=N)N)C(=O)N[C@@H](Cc2c[nH]cn2)C(=O)NCC(=O)N[C@@H](CO)C(=O)N2CCC[C@H]2C(=O)N[C@@H](CO)C(=O)N[C@@H](CO)C(=O)NCC(=O)N[C@@H](C)C(=O)N2CCC[C@H]2C(=O)N2CCC[C@H]2C(=O)N2CCC[C@H]2C(=O)N[C@@H](CO)C(N)=O)NC(=O)CNC(=O)[C@H](CC(C)C)NC(=O)CNC(=O)[C@H](CO)NC(=O)[C@H](Cc2ccc(O)cc2)NC(=O)[C@H](CCCN)NC(=O)CNC1=O [Example 135] | 104000 | 497 |
| {C20 diacid-γGlu}-EKEKEKGEKGRSSCFGGRIDRIGHYSGLGCPSLRHGGPSSGAPPPS-NH2 (disulfide 14-30) [Example 51] |  | 361 |
